Reference: patent US20090062258A1, “FUSED PYRIMIDINE DERIVATIVE AND USE THEREOF” (Takeda Pharmaceutical Company Limited, priority 2005, published 2009)

biological target: T1, human GnRH receptor (Homo sapiens, UniProt P30968); assay: 125I-leuprorelin binding assay (binding inhibitory rate); conditions: 10 nM of the testing compound; 800 pM 125I-leuprorelin; 10 μg human GnRH receptor membrane fraction (CHO cells); room temperature 1 hour; read-out: Binding inhibitory ratio (%)
T1 construct: expressed in transfected cells; host or cells: CHO (Chinese Hamster Ovary) cells; membrane fraction
T1 sequence (P30968 1-328): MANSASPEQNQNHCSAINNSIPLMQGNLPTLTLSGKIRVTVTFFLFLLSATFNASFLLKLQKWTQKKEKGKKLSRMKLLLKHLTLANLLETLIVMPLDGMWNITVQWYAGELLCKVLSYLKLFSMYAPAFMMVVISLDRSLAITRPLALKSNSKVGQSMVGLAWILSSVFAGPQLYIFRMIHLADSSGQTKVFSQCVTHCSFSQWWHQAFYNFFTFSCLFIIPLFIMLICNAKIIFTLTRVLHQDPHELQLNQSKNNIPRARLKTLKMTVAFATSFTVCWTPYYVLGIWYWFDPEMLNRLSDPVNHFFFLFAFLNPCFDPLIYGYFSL
Procedure: 10 μL of a 3×10^−4 M aqueous solution of leuprorelin and 10 μL of 0.01 mg/mL lactoperoxidase were placed in a tube, and 10 μL (37 MBq) of a Na^125I solution was added thereto. After stirring, 10 μL of 0.001% H2O2 was added to allow the mixture to undergo a reaction at room temperature for 20 minutes. 700 μL of a 0.05% TFA solution was added to stop the reaction, and purification by reversed phase HPLC was carried out. The conditions for HPLC are described below. ^125I-leuprorelin was eluted at a retention time of 26 to 27 minutes.
Human GnRH receptor-expressing CHO cells were cultured until the cells were reached a 90% confluent state in a T-150 flask. The cells were separated using 0.02% EDTA-PBS and were centrifuged at 500×g for 5 minutes. A homogenate buffer for cells (10 mM NaHCO3, 1 mM EDTA, 1 mM PMSF, 0.5 μg/mL Pepstatin, 2 μg/mL Leupeptin, pH 7.4) was added to the cell pellet, and the mixture was homogenized with a Polytron homogenizer. After centrifugation of the homogenate at 4° C. and at 1000×g for 10 minutes, the supernatant was placed in an ultracentrifuge tube and was centrifuged at 4° C. and at 49,300×g for 1 hour to obtain a precipitate of a membrane fraction. This precipitate was suspended in an assay buffer (50 mM Tris-HCl, 150 mM NaCl, 5 mM EDTA, pH 7.4) and then dispensed and stored at −80° C., so that the suspension can be thawed every time it is taken for use.
A ^125I-leuprorelin binding assay was carried out using 200 μL of an assay buffer containing 10 μg of human GnRH receptor membrane fraction, 800 pM of ^125I-leuprorelin and 10 nM of the testing compound.
The non-specific binding radioactivity was measured in the presence of 1 μM of non-labeled leuprorelin. After leaving the mixture to stand at room temperature for 1 hour, ^125I-leuprorelin was captured on a GF/C filter (PerkinElmer, Inc.), and the filter was washed with ice-cold 50 mM Tris-HCl (pH 7.4) using a cell harvester. After drying the filter, a liquid scintillation cocktail for microplate was added, and the membrane-bound radioactivity was measured using a TopCount.
The value of (TB-SB)/(TB-NSB)×100 (SB: radioactivity upon addition of the compound, TB: maximum binding radioactivity, NSB: non-specific binding radioactivity) was calculated to determine the binding inhibitory rate in the presence of 10 nM of each testing material.

Row | Compound | inhibition at 0.01 µM
1 | O=c1[nH]c2ccsc2c(=O)n1-c1cccc(S(=O)(=O)N2CCCc3ccccc32)c1 [Example 1, 3-[3-(3,4-Dihydroquinolin-1(2H)-ylsulfonyl)phenyl]thieno[3,2-d]pyrimidin-2,4(1H,3H)-dione] | 86%
2 | O=C(O)c1scc2[nH]c(=O)n(-c3cc(S(=O)(=O)N4CCCCc5sccc54)sc3Cl)c(=O)c12 [Example 6, 3-[2-Chloro-5-(5,6,7,8-tetrahydro-4H-thieno[3,2-b]azepin-4-ylsulfonyl)-3-thienyl]-2,4-dioxo-1,2,3,4-tetrahydrothieno[3,4-d]pyrimidine-5-carboxylic acid] | 97%
3 | CC(C)(C)OC(=O)CNC(=O)c1scc2[nH]c(=O)n(-c3cccc(S(=O)(=O)N4CCCc5ccccc54)c3)c(=O)c12 [Example 7 (1), N-({3-[3-(3,4-Dihydroquinolin-1(2H)-ylsulfonyl)phenyl]-2,4-dioxo-1,2,3,4-tetrahydrothieno[3,4-d]pyrimidin-5-yl}carbonyl) glycine tert-butyl ester] | 92%
4 | Cc1nnc(-c2scc3[nH]c(=O)n(-c4cccc(S(=O)(=O)N5CCCc6ccccc65)c4)c(=O)c23)o1 [Example 12, 3-[3-(3,4-dihydroquinolin-1(2H)-ylsulfonyl)phenyl]-5-(5-methyl-1,3,4-oxadiazol-2-yl)thieno[3,4-d]pyrimidin-2,4(1H,3H)-dione] | 72%
5 | CNC(=O)c1scc2[nH]c(=O)n(-c3cc(S(=O)(=O)N4CCCc5ccccc54)ccc3Cl)c(=O)c12 [Example 16, 3-[2-Chloro-5-(3,4-dihydroquinolin-1(2H)-ylsulfonyl)phenyl]-N-methyl-2,4-dioxo-1,2,3,4-tetrahydrothieno[3,4-d]pyrimidine-5-carboxamide] | 96%
6 | CC(O)c1scc2[nH]c(=O)n(-c3cccc(S(=O)(=O)N4CCCc5ccccc54)c3)c(=O)c12 (stereo not drawn) [Example 24, 3-[3-(3,4-Dihydroquinolin-1(2H)-ylsulfonyl)phenyl]-5-(1-hydroxyethyl)thieno[3,4-d]pyrimidin-2,4(1H,3H)-dione] | 95%
7 | COC(=O)c1scc2[nH]c(=O)n(-c3cc(S(=O)(=O)N4CCCc5ccccc54)cs3)c(=O)c12 [Example 30, Methyl 3-[4-(3,4-dihydroquinolin-1(2H)-ylsulfonyl)-2-thienyl]-2,4-dioxo-1,2,3,4-tetrahydrothieno[3,4-d]pyrimidine-5-carboxylate] | 110%
8 | O=c1[nH]c2csc(CO)c2c(=O)n1-c1cc(S(=O)(=O)N2CCCc3ccccc32)cs1 [Example 31, 3-[4-(3,4-Dihydroquinolin-1(2H)-ylsulfonyl)-2-thienyl]-5-(hydroxymethyl)thieno[3,4-d]pyrimidin-2,4(1H,3H)-dione] | 100%
9 | CCN(C(=O)c1csc(-n2c(=O)[nH]c3csc(C(=O)O)c3c2=O)c1)c1ccccc1 [Example 33-2, 3-(4-{[Ethyl(phenyl)amino]carbonyl}-2-thienyl)-2,4-dioxo-1,2,3,4-tetrahydrothieno[3,4-d]pyrimidine-5-carboxylic acid] | 85%
10 | O=C(O)c1csc2[nH]c(=O)n(-c3cccc(S(=O)(=O)N4CCCc5ccccc54)c3)c(=O)c12 [Example 34 (3), 3-[3-(3,4-Dihydroquinolin-1(2H)-ylsulfonyl)phenyl]-2,4-dioxo-1,2,3,4-tetrahydrothieno[2,3-d]pyrimidine-5-carboxylic acid] | 100%
11 | COC(=O)c1scc2[nH]c(=O)n(-c3cc(C(=O)N(c4cccc(Br)c4Cl)C4CC4)sc3Cl)c(=O)c12 [Example 37, Methyl 3-(5-{[(3-bromo-2-chlorophenyl)(cyclopropyl)amino]carbonyl}-2-chloro-3-thienyl)-2,4-dioxo-1,2,3,4-tetrahydrothieno[3,4-d]pyrimidine-5-carboxylate] | 100%
12 | COC(=O)c1scc2[nH]c(=O)n(-c3cc(C(=O)N(c4cccc(C#N)c4Cl)C4CC4)sc3Cl)c(=O)c12 [Example 38, Methyl 3-(2-chloro-5-{[(2-chloro-3-cyanophenyl)(cyclopropyl)amino]carbonyl}-3-thienyl)-2,4-dioxo-1,2,3,4-tetrahydrothieno[3,4-d]pyrimidine-5-carboxylate] | 95%
13 | N#Cc1cccc(N(C(=O)c2cc(-n3c(=O)[nH]c4csc(CO)c4c3=O)c(Cl)s2)C2CC2)c1Cl [Example 39, 5-Chloro-N-(2-chloro-3-cyanophenyl)-N-cyclopropyl-4-[5-(hydroxymethyl)-2,4-dioxo-1,2-dihydrothieno[3,4-d]pyrimidine-3(4H)-yl]thiophene-2-carboxamide] | 101%
14 | N#Cc1cccc(N(C(=O)c2cc(-n3c(=O)[nH]c4csc(C(=O)O)c4c3=O)c(Cl)s2)C2CC2)c1Cl [Example 40, 3-(2-Chloro-5-{[(2-chloro-3-cyanophenyl)(cyclopropyl)amino]carbonyl}-3-thienyl)-2,4-dioxo-1,2,3,4-tetrahydrothieno[3,4-d]pyrimidine-5-carboxylic acid] | 101%
15 | N#Cc1cccc(N(C(=O)c2cc(-n3c(=O)[nH]c4csc(C(N)=O)c4c3=O)c(Cl)s2)C2CC2)c1Cl [Example 41, 3-(2-Chloro-5-{[(2-chloro-3-cyanophenyl)(cyclopropyl)amino]carbonyl}-3-thienyl)-2,4-dioxo-1,2,3,4-tetrahydrothieno[3,4-d]pyrimidine-5-carboxamide] | 100%
